Test results as given in paper PMC7265341, “Quantifying CDK inhibitor selectivity in live cells” (Nature Communications, 2020).
pIC50: −log10 of the molar value. Where “and” joins values, the source holds several entries; their conditions need not be identical. Identical values can stand only once.

Columns and labels:
[1] = target: T1, CDK7 (Homo sapiens, UniProt P50613); test: Real-time analysis of engagement (kobs, IC50 vs time) in live cells, CDK7; assay type: binding
Procedure: Cells were pre-equilibrated with energy transfer probe for 40 min prior to addition of […]
intervals at 25 °C (temperature reduced to avoid evaporation of cell culture medium). To quantify […]
vs time. Apparent association rate was also plotted as k obs vs [RGB286638], where kobs was determined using the one phase association equation (Supplementary Equation 2) in graphpad prism.
Y=Y0 + (Plateau-Y0)*(1-e-K*X) (2) where Y = mBRET ratio, X = time, and K = the observed rate constant ( kobs). […]
CDK7 (left) and CDK6 (right) to generate kobs. Kinetic traces were collected in a single biological experiment (n = 1), where individual data points represent the mean ± S.D of technical triplicates (n = 3).
(B) kobs values (n = 1) were generated from panel A by fitting Supplementary Equation 2, and were then […]
collected at each timepoint represent technical singlicates (n = 1 ). Source data are provided as a Source

[2] = target: CDK2 (Homo sapiens, UniProt P24941); test: Intracellular residence time by cellular washout, CDK2; assay type: binding; settings: for CDK2 occupancy after compound washout (%): Panel B;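 for all read-outs here: NanoBRET live-cell washout assay after 2 h compound pretreatment at 37 °C, rising energy-transfer probe signal tracks loss of CDK2 engagement, compared against DMSO vehicle cells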
[3] = target: T1, CDK7; test: Intracellular residence time by cellular washout, CDK7; assay type: binding; settings: for CDK7: Panel B
Procedure: However, residence times for this and many of the other CDKi’s in our panel have not been reported in cell-free or cellular contexts. […] This condition was selected to ensure adequate target occupancy prior to compound washout. Residence time was then evaluated by a rapid compound washout procedure, followed by addition of energy transfer probe 1. Under these conditions, the rate of the energy transfer signal increase serves as a direct proxy for the loss of the target-CDKi interaction[18],[56],[57].
Residence time was qualitatively assessed via a cellular washout approach, where delayed energy probe association is used as an indirect measurement for the durability of target/compound engagement. […] After 2 h of incubation at 37 °C, the medium was aspirated from the cells and replaced with fresh OptiMEM containing NanoBRET NanoGlo Substrate and Extracellular NanoLuc Inhibitor. […] Occupancy values were plotted as a function of time.
Supplementary Figure 22. […] Residence […]
time was qualitatively assessed by cellular washout as described in the method details and compared to association of energy transfer probe in cells treated with DMSO vehicle. […]
engagement at CDK6 and kinetic selectivity for CDK6 compared to CDK2 and CDK7. BRET ratios were normalized between the maximum BRET value vs BRET value in the absence of tracer. Kinetic traces and individual points are mean of 3 independent experiments ± S.E.M (n = 3). Source data are provided as a […]

[4] = target: CDK19/Cyclin C (Homo sapiens, UniProt Q9BWU1); test: cell-based
[5] = LOG10([THZ1]) (LOG10(µM)) 0.346787
[6] = LOG10([THZ1]) (LOG10(µM)) 0.823909
[7] = LOG10([THZ1]) (LOG10(µM)) 1.30103, Replicates 1 and 2
[8] = LOG10([THZ1]) (LOG10(µM)) -0.60746
[9] = LOG10([THZ1]) (LOG10(µM)) -1.08458
[10] = LOG10([THZ1]) (LOG10(µM)) -1.5617
[11] = LOG10([THZ1]) (LOG10(µM)) -2.03882
[12] = LOG10([THZ1]) (LOG10(µM)) -2.51594
[13] = LOG10([THZ1]) (LOG10(µM)) -2.99306
[14] = LOG10([THZ1]) (LOG10(µM)) -3.47018
[15] = LOG10([THZ1]) (LOG10(µM)) -3.9473
[16] = Time (Min) 32.9743, listed as RGB-286638

T1 sequence (P50613 whole entry): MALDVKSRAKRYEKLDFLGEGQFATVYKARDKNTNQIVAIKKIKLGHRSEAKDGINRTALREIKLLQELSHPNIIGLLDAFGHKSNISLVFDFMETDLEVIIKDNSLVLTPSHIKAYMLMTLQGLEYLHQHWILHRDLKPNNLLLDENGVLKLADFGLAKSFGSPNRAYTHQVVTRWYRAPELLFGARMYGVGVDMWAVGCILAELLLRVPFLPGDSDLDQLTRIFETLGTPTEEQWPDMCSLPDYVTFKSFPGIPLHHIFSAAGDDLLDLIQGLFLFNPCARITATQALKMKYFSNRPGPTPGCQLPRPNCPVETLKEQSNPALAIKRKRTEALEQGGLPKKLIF
Chain of CDK19/Cyclin C (Q9BWU1 whole entry): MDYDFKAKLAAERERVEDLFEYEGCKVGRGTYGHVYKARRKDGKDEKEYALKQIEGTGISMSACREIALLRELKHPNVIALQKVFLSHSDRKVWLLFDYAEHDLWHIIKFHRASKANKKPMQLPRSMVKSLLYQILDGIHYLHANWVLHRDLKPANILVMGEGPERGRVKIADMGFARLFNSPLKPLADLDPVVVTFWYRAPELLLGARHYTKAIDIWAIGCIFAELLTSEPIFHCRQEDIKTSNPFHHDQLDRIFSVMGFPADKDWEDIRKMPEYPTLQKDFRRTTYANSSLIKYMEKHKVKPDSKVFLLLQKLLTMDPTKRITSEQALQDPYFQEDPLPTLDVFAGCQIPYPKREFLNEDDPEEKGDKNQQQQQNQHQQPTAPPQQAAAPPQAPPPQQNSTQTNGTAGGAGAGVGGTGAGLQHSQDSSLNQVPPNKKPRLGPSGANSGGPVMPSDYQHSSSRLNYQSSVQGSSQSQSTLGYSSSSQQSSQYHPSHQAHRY
Chain of CDK19/Cyclin C (P24863 whole entry partner): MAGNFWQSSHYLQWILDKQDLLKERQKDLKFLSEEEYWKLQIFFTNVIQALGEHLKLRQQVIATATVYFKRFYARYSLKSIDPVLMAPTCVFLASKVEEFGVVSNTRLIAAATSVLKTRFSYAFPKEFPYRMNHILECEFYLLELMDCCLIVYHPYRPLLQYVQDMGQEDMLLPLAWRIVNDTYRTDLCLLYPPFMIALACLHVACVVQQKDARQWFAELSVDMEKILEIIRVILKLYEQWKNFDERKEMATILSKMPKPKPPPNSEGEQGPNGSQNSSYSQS

CN(C)C/C=C/C(=O)Nc1ccc(C(=O)Nc2cccc(Nc3ncc(Cl)c(-c4c[nH]c5ccccc45)n3)c2)cc1 [THZ1]
mBRET values, 2h [1, 5]: 8.56 mBRET and 5.32 mBRET | mBRET values, 2h [1, 6]: 7.68 mBRET and 4.86 mBRET | mBRET values, 2h [1, 7]: 6.67 mBRET and 4.16 mBRET | mBRET values, 2h [1, 8]: 15 mBRET and 7.79 mBRET | mBRET values, 2h [1, 9]: 16.83 mBRET and 10.6 mBRET | mBRET values, 2h [1, 10]: 18.12 mBRET and 11.5 mBRET | mBRET values, 2h [1, 11]: 20.68 mBRET and 12.8 mBRET | mBRET values, 2h [1, 12]: 20.88 mBRET and 13.4 mBRET | mBRET values, 2h [1, 13]: 20.48 mBRET and 13.4 mBRET | mBRET values, 2h [1, 14]: 19.82 mBRET and 13.5 mBRET | mBRET values, 2h [1, 15]: 20.06 mBRET and 13.5 mBRET | mBRET values, 6h [1, 5]: 7.65 mBRET and 4.87 mBRET | mBRET values, 6h [1, 6]: 7.21 mBRET and 4.56 mBRET | mBRET values, 6h [1, 7]: 6.77 mBRET and 4.18 mBRET | mBRET values, 6h ([1]; LOG10([THZ1]) (LOG10(µM)) -0.13033): 8.08 mBRET and 4.82 mBRET | mBRET values, 6h [1, 8]: 8.54 mBRET and 5.25 mBRET | mBRET values, 6h [1, 9]: 9.55 mBRET and 5.83 mBRET | mBRET values, 6h [1, 10]: 13.84 mBRET and 8.78 mBRET | mBRET values, 6h [1, 11]: 18.55 mBRET and 12 mBRET | mBRET values, 6h [1, 12]: 19.6 mBRET and 13.1 mBRET | mBRET values, 6h [1, 13]: 19.14 mBRET and 12.9 mBRET | mBRET values, 6h [1, 14]: 18.6 mBRET and 13.6 mBRET | mBRET values, 6h [1, 15]: 19.78 mBRET and 13.4 mBRET

COCCN1CCN(Cc2ccc(-c3n[nH]c4c3C(=O)c3c(NC(=O)NN5CCOCC5)cccc3-4)cc2)CC1 [RGB286638]
CDK2 occupancy after compound washout (%) ([2]; Time (Min) 0): 86.242 and 90.073 and 94.3307 | CDK2 occupancy after compound washout (%) ([2]; Time (Min) 2.97013): 79.5117 and 80.9002 and 88.1102 | CDK2 occupancy after compound washout (%) ([2]; Time (Min) 5.97045): 73.673 and 73.2847 and 82.0472 | CDK2 occupancy after compound washout (%) ([2]; Time (Min) 8.97078): 68.5138 and 66.4964 and 75.5906 | CDK2 occupancy after compound washout (%) ([2]; Time (Min) 11.9714): 64.0977 and 61.0706 and 70.5249 | CDK2 occupancy after compound washout (%) ([2]; Time (Min) 14.9718): 59.9363 and 55.5961 and 65.5381 | CDK2 occupancy after compound washout (%) ([2]; Time (Min) 17.9723): 56.1571 and 50.7299 and 61.601 | CDK2 occupancy after compound washout (%) ([2]; Time (Min) 20.9723): 52.6752 and 47.2263 and 57.3753 | CDK2 occupancy after compound washout (%) ([2]; Time (Min) 23.9731): 49.9788 and 43.4307 and 53.9895 | CDK2 occupancy after compound washout (%) ([2]; Time (Min) 26.9737): 47.0913 and 40.219 and 51.2336 | CDK2 occupancy after compound washout (%) ([2]; Time (Min) 29.9742): 44.5011 and 36.91 and 47.9003 | CDK2 occupancy after compound washout (%) [2, 16]: 42.1444 and 34.1363 and 45.2756 | CDK2 occupancy after compound washout (%) ([2]; Time (Min) 35.9749): 39.724 and 31.4599 and 43.3596 | CDK2 occupancy after compound washout (%) ([2]; Time (Min) 38.9753): 37.5584 and 29.5864 and 40.3675 | CDK2 occupancy after compound washout (%) ([2]; Time (Min) 41.9753): 36.0722 and 27.129 and 39.4488 | CDK2 occupancy after compound washout (%) ([2]; Time (Min) 44.9758): 33.3121 and 25.1582 and 36.6667 | CDK2 occupancy after compound washout (%) ([2]; Time (Min) 47.9761): 31.6136 and 23.6253 and 35.2756 | CDK2 occupancy after compound washout (%) ([2]; Time (Min) 50.9766): 29.9788 and 21.8978 and 32.9134 | CDK2 occupancy after compound washout (%) ([2]; Time (Min) 53.9771): 27.983 and 20.1946 and 30.7874 | CDK2 occupancy after compound washout (%) ([2]; Time (Min) 56.9772): 27.3885 and 18.0049 and 30.0525 | CDK2 occupancy after compound washout (%) ([2]; Time (Min) 59.9777): 25.9023 and 17.2749 and 28.5564 | CDK2 occupancy after compound washout (%) ([2]; Time (Min) 62.9781): 24.4161 and 15.8151 and 27.3753 | CDK2 occupancy after compound washout (%) ([2]; Time (Min) 65.9785): 22.9299 and 14.3552 and 26.2992 | CDK2 occupancy after compound washout (%) ([2]; Time (Min) 68.9792): 21.4437 and 13.6253 and 25.1706 | CDK2 occupancy after compound washout (%) ([2]; Time (Min) 71.9792): 20.5945 and 12.1655 and 24.252 | CDK2 occupancy after 2 h of analysis following compound washout ([2]; live cells, probe 1 at 1 µM): fully dissociated | CDK7 ([3]; Time (Min) 2.97013): 63.5317 and 37.2109 and 59.6726 | CDK7 ([3]; Time (Min) 5.97045): 70.1207 and 47.8912 and 70.0893 | CDK7 ([3]; Time (Min) 8.97078): 76.2242 and 55.3742 and 82.1429 | CDK7 ([3]; Time (Min) 11.9714): 80.0388 and 60.068 and 80.8036 | CDK7 ([3]; Time (Min) 14.9718): 83.1599 and 63.8775 and 88.244 | CDK7 ([3]; Time (Min) 17.9723): 84.339 and 67.0068 and 93.006 | CDK7 ([3]; Time (Min) 20.9723): 86.0036 and 69.5238 and 91.8155 | CDK7 ([3]; Time (Min) 23.9731): 87.5988 and 70.4762 and 91.0714 | CDK7 ([3]; Time (Min) 26.9737): 87.252 and 72.2449 and 92.2619 | CDK7 ([3]; Time (Min) 29.9742): 89.6796 and 72.7211 and 93.4524 | CDK7 ([3]; Time (Min) 32.9743): 74.1497 | CDK7 [3, 16]: 87.9456 and 99.1071 | CDK7 ([3]; Time (Min) 35.9749): 89.8183 and 75.5102 and 100.298 | CDK7 ([3]; Time (Min) 38.9753): 90.3731 and 75.102 and 97.619 | CDK7 ([3]; Time (Min) 41.9753): 91.4829 | CDK7 ([3]; Time (Min) 236.996): 85.5181 and 68.5714 and 62.6488 | CDK7 ([3]; Time (Min) 239.996): 81.0792 and 69.4558 and 75.1488 | CDK7 ([3]; Time (Min) 242.996): 82.6744 and 69.7959 and 76.3393 | CDK7 ([3]; Time (Min) 245.996): 82.397 and 69.0476 and 68.4524 | CDK7 ([3]; Time (Min) 248.996): 81.4954 and 70.068 and 77.0833 | CDK7 ([3]; Time (Min) 251.996): 82.3276 and 68.6395 and 82.7381 | CDK7 ([3]; Time (Min) 254.996): 80.5243 and 67.551 and 74.1071 | CDK7 ([3]; Time (Min) 257.996): 85.2407 and 70.4082 and 62.2024 | CDK7 ([3]; Time (Min) 260.996): 83.0212 and 68.0272 and 80.6548 | CDK7 ([3]; Time (Min) 263.996): 83.8535 and 68.6395 and 70.6845 | CDK7 ([3]; Time (Min) 266.996): 68.0272 | CDK7 ([3]; Time (Min) 266.996, listed as RGB-286638): 83.7842 and 91.369 | CDK7 ([3]; Time (Min) 269.996): 81.2873 and 68.9116 and 72.9167 | CDK7 ([3]; Time (Min) 272.996): 80.8711 and 70.3401 and 74.8512 | CDK7 ([3]; Time (Min) 275.996): 78.9985 and 67.0748 and 80.0595 | CDK7 ([3]; Time (Min) 278.996): 80.5243 and 67.8231 and 80.6548 | CDK7 ([3]; Time (Min) 281.996): 80.1776 and 69.4558 and 75 | CDK7 ([3]; Time (Min) 284.996): 78.513 and 68.5034 and 75.2976 | CDK7 ([3]; Time (Min) 287.996): 79.8308 and 68.2993 and 76.6369 | CDK7 ([3]; Time (Min) 290.996): 80.5243 and 69.932 and 91.2202 | CDK7 ([3]; Time (Min) 293.996): 78.9985 and 67.9592 and 82.2917 | CDK7 occupancy after 2 h of analysis following compound washout ([3]; live cells, probe 1 at 1 µM): fully dissociated

CCN1CCN(Cc2ccc(NC(=O)Nc3ccc(Oc4cc(NC)ncn4)cc3)cc2C(F)(F)F)CC1 [AST-487]
pIC50 [4]: 8.23
